Experimental data as given in patent publication US11660285B2, “Triptolide acrylate, preparation method therefor and use thereof” (GUANGDONG PROVINCIAL HOSPITAL OF TCM, priority 2019, dated 2023).

Columns and labels:
[1] = tested on: HepG2 liver cancer cells; experiment: Cell proliferation by MTT method, HepG2; assay type: cell-based; settings: HepG2, 10, 25, 50, 100 nM, 24 h, FIG. 9
Experimental: (§1) 2.2 Detection of Cell Proliferation by MMT Method
(§2) When the liver cancer cells grew to the logarithmic phase, the single cell suspension was inoculated in a 96-well plate at 1×10^4 cells per well. A blank group was a DMEM medium containing 10% fetal bovine serum, a control group was a solvent-added control (DMSO) cell group, and an experimental group was a cell group treated with drugs with different final concentrations (10, 25, 50, 100 nM). After 24 h of treatment, the medium supernatant was carefully aspirated, and 100 μL of MTT solution with a final concentration of […] diluted with the medium was added to each well. After the cells were cultured for 4 h, the medium was discarded, 150 μL of DMSO solution was added to each well, and shaking was performed at a low speed on the shaker for 10 min in the dark. After the crystals were fully dissolved, the absorbance (A) of each well was detected at 490 nm with the microplate reader. Cell proliferation inhibition rate=[(control group A450-blank group A450)−(experimental group A450−blank group A450)/(control group A450−blank group A450)]×100%.

[2] = tested on: Hep3B liver cancer cells; experiment: Cell apoptosis by flow cytometry, Hep3B; assay type: cell-based; settings: Hep3B, 0, 50 and 100 nM, 24 h, FIG. 10 A
Experimental: (§3) 2.3 Detection of Cell Apoptosis by Flow Cytometry
(§4) Liver cancer cells in the logarithmic growth phase were taken and inoculated in a 12-well plate at 5×10^5 cells per well. The cells treated with triptolide acrylate (hereinafter referred to as TPO) and triptolide triol (hereinafter referred to as TP-3-OH) with final concentrations of 0, 50 and 100 nM were used. After 24 h of treatment, the cells were digested and collected with 0.25% EDTA-free pancreatin, washed twice with pre-cooled PBS, and resuspended with 300 μL 1× Binding Buffer. 5 μL FITC Annexin V and 5 μL PI were added to each tube of cell suspension and incubated at a room temperature for 5 min in the dark, and the flow cytometry was used for detection within 1 h.

[3] = tested on: BEL-7402 liver cancer cells; experiment: Cell proliferation by MTT method, BEL-7402; assay type: cell-based; settings: BEL-7402, 10, 25, 50, 100 nM, 24 h, FIG. 9
Experimental: as §1, §2

[4] = tested on: LO2 cells; experiment: Cell toxicity experiment (LDH activity of culture supernatant); assay type: cell-based; settings: normal liver cells, 0, 10, 50 and 100 nM, 24 h; FIG. 8
Experimental: 2.1 Cell Toxicity Experiment
Logarithmically growing LO2 cells were taken and inoculated in a 96-well plate at 1×10^4 cells per well. The cells treated with drugs with final concentrations of 0, 10, 50 and 100 nM were used respectively, the culture supernatant was collected after 24 h, and the LDH activity of the culture supernatant was detected by the Roche biochemical analyzer.

[5] = tested on: PARP; experiment: Apoptosis-related proteins by western blot, PARP in BEL-7402 cells; assay type: cell-based; settings: BEL-7402 cells, 0, 50 and 100 nM, 24 h, FIG. 10 B
Experimental: (§5) 2.4 Detection of Apoptosis-Related Proteins by Western Blot
(§6) BEL-7402 cells in the logarithmic growth phase were taken and inoculated in a 12-well plate at 5×10^5 cells per well. The cells treated with TPO with final concentrations of 0, 50 and 100 nM were used. After 24 h of treatment, the cells were collected, then lysate was added, and total proteins were extracted after sufficient lysis on ice. After the protein concentration was measured by a BCA method, the Loading buffer was added and boiled at 100° C. for 10 min to fully denature the proteins. The denatured sample was subjected to SDS-PAGE gel electrophoresis and electrically transferred to a PVDF membrane. The transferred PVDF membrane was sealed with a 5% BSA solution in TBST at a room temperature for 1 h, then incubated overnight with the corresponding primary antibody at 4° C., washed with TBST, incubated with the secondary antibody at a room temperature for 2 h, and washed with TBST again.
(§7) Finally, an ECL chemiluminescent solution was added to make the membrane strip emit light, electrophoresis results were obtained by pressing, developing and fixing with photosensitive films, and the change trends of apoptosis-related proteins among different treatment groups were observed.

[6] = tested on: SMMC-7721 liver cancer cells; experiment: Cell proliferation by MTT method, SMMC-7721; assay type: cell-based; settings: SMMC-7721, 10, 25, 50, 100 nM, 24 h, FIG. 9
Experimental: as §1, §2

[7] = tested on: caspase-3; experiment: Western blot of tumor tissue, caspase-3; assay type: in vivo, nude mice; settings: FIG. 7
Experimental: (§8) After the tumor tissue was thawed on ice, 50 mg of tumor tissue was taken into a tissue homogenization tube, and 500 μL of tissue lysate containing protease inhibitors and phosphatase inhibitors was added (usage of Roche brand tablets: 1 tablet/10 mL). After high-speed homogenization, centrifugation was performed at 12,000 rpm/min for 15 min, the supernatant was taken, and the protein concentration of the sample was measured by a BCA method. After the concentration of each sample was adjusted to the same, a protein loading buffer (5× Loading buffer) was added, denaturation was performed at 100° C. for 10 min, and preservation was performed at −80° C.
(§9) An appropriate brand of 10% pre-mixed polyacrylamide gel preparation solution was selected, and then, the gel (including separating gel and stacking gel) used in the experiment was prepared according to the instructions for use, which takes about 2 h. In the process of waiting for gel solidification, an SDS-PAGE gel electrophoresis solution was prepared in advance, the prepared gel was put in an electrophoresis tank, then the electrophoresis solution was added, and 10-30 μL of sample was added to each well of loading slot. After the sample runs through the stacking gel at a low pressure of 80 V, the voltage was adjusted to 100 V to make the sample run through the entire block of gel, so as to complete the SDS-PAGE gel electrophoresis operation. Secondly, a membrane transfer operation was performed (a PVDF membrane was pre-wetted in methanol for 5 min in advance), and membrane transfer conditions were: 300 mA, 120-150 min (corresponding to the time selection of the dividing line with a molecular weight of 100 kDa, wherein the selected membrane transfer time of the separated protein with a molecular weight less than 100 kDa was 120 min, and the selected membrane transfer time of the separated protein with a molecular weight greater than 100 kDa was 150 min). […] An ECL luminescent solution was used as a substrate to expose the target band, and the results were analyzed, recorded and counted.

[8] = tested on: BEL-7402 liver cancer cells; experiment: Cell apoptosis by flow cytometry, BEL-7402; assay type: cell-based; settings: BEL-7402, 0, 50 and 100 nM, 24 h, FIG. 10 A
Experimental: as §3, §4

[9] = tested on: Caspase-3; experiment: Apoptosis-related proteins by western blot, Caspase-3 in BEL-7402 cells; assay type: cell-based; settings: BEL-7402 cells, 0, 50 and 100 nM, 24 h, FIG. 10 B
Experimental: as §5, §6, §7

[10] = tested on: Hep3B liver cancer cells; experiment: Cell proliferation by MTT method, Hep3B; assay type: cell-based; settings: Hep3B, 10, 25, 50, 100 nM, 24 h, FIG. 9
Experimental: as §1, §2

[11] = tested on: caspase-8; experiment: Western blot of tumor tissue, caspase-8; assay type: in vivo, nude mice; settings: FIG. 7
Experimental: as §8, §9

[12] = tested on: HepG2 subcutaneous implanted tumor (HepG2-Luc); experiment: Inhibition experiment on HepG2 subcutaneous implanted tumor in nude mice; assay type: in vivo
Experimental: 2.1 Establishment of Animal Models
Establishment of HepG2-Luc cell line stably expressing luciferase: HepG2 cells in the logarithmic growth phase were taken and placed into a 24-well plate at 1×10^5/well, and cultured overnight to make the cells fully adherent. An original medium was replaced with 2 mL of fresh medium containing 6 μg/mL polybrene, about 1×10^5 transfection units of recombinant lentiviral particles stably expressing luciferase were added, and after incubation was performed for 4 h at 37° C., 2 mL of fresh medium was added to dilute the polybrene. The culture was continued, and a virus-containing medium was replaced with a fresh medium. The culture was continued, a medium containing puromycin was replaced for resistance screening, drug-resistant clones were picked and screened for two weeks, and finally, a cell line HepG2-Luc stably expressing luciferase was obtained.
Construction of bear mice by HepG2-Luc cell line: the cryopreserved HepG2-Luc cells were recovered to a 100 cm^2 culture flask, cultured in vitro to the logarithmic growth phase and digested with 0.25% trypsin containing EDTA, the cells were collected and centrifuged at 1000 rpm for 3 min at a room temperature, the supernatant was discarded, the cells were washed with a serum-free DMEM medium, and the cell viability was detected by a trypan blue exclusion assay (only if the proportion of viable cells exceeded 95%, the experimental requirements were met). A small amount of the serum-free DMEM medium was added to resuspend the cells, and the cells were counted. […]
Detection of tumor growth by animal in-vivo imaging system: each nude mouse was intraperitoneally injected with 150 μL of 30 mg/kg […] substrate and observed for 15 min, the nude mouse was anesthetized with diethyl ether in an induction box for 5 min, the anesthetized nude mouse was quickly transferred into an observation box, the head of the nude mouse was aligned and fixed in a conical nasal plug, parameters were set for fluorescence imaging (if there was tumor growth, fluorescence signals with different intensities can be detected at the corresponding positions), after the imaging, the nude mouse was transferred into the induction box again, and an oxygen valve was turned on to revive the nude mouse.
18 random numbers were generated by Excel software, the random numbers were corresponding to the numbers of the nude mice, and the nude mice were equally divided into model groups according to the size of the random numbers, namely a low-dose group (100 μg/kg), a middle-dose group (200 μg/kg) and a high-dose group (400 μg/kg). After random grouping, the nude mice were weighed and the tumor volume was measured. […]

[13] = tested on: Huh7 cells; experiment: Scratch test; assay type: cell-based; settings: 50 nM, 24 and 48 h, serum-free medium; P<0.05; FIG. 11
Experimental: Huh7 cells in the logarithmic growth phase were taken and inoculated in a 24-well plate at 5×10^5 cells per well. After the cells were overgrown, a sterile pipette tip was used for scratching, the cells were washed 3 times with PBS after scratching, the scratched cells were removed, a serum-free medium containing 50 nM TPO was added to continue the culture for 24 and 48 h, and photographing was performed. The scratch photo was analyzed by Image J software, the scratch distance was calculated, and the scratch healing was evaluated.

[14] = tested on: p53; experiment: Western blot of tumor tissue, p53; assay type: in vivo, nude mice; settings: FIG. 7
Experimental: as §8, §9

Compound: C=CC(=O)O[C@@H]1[C@@]2(C(C)C)O[C@H]2[C@@H]2O[C@]23[C@]12O[C@H]2C[C@H]1C2=C(CC[C@@]13C)C(=O)OC2 [triptolide acrylate]
- inhibiting effect on proliferation [1]: significant inhibiting effect
- proportion of Annexin V and PI positive cells (induction of apoptosis) [2]: significantly increased
- inhibiting effect on proliferation [3]: significant inhibiting effect
- LDH activity of the culture supernatant of LO2 cells [4]: significantly lower than that of the TPL treatment group
- cleavage of PARP [5]: significantly increased
- inhibiting effect on proliferation [6]: significant inhibiting effect
- protein expression quantity of caspase-3 ([7]; high-dose group (400 μg/kg)): significantly increase
- protein expression quantity of caspase-3 ([7]; low-dose group (100 μg/kg)): reduce
- protein expression quantity of caspase-3 ([7]; middle-dose group (200 μg/kg)): significantly increase
- proportion of Annexin V and PI positive cells (induction of apoptosis) [8]: significantly increased
- cleavage of Caspase-3 [9]: significantly increased
- inhibiting effect on proliferation [10]: significant inhibiting effect
- protein expression quantity of caspase-8 ([11]; high-dose group (400 μg/kg)): reduce
- protein expression quantity of caspase-8 ([11]; low-dose group (100 μg/kg)): reduce
- protein expression quantity of caspase-8 ([11]; middle-dose group (200 μg/kg)): significantly increase
- tumor volume (subcutaneous implanted tumor seen on skin surface) ([12]; administration group (especially the high-dose group) vs model group, dose-dependent, FIG. 5): significantly less than that of the model group
- tumor volume of tumor tissues stripped after sacrifice ([12]; administration group vs model group, FIG. 6): less than that of the model group
- fluorescence signals in the tumors of the nude mice ([12]; each dose group (100, 200, 400 μg/kg), intraperitoneal injection once a day for 13 days, compared with the model group, dose-dependent, FIG. 4): significantly weakened
- fluorescence signal in the tumors of the nude mice ([12]; high-dose group (400 μg/kg), intraperitoneal injection once a day for 13 days, FIG. 4): weakened more obviously
- migration of Huh7 cells (scratch healing) [13]: significantly inhibit
- protein expression quantity of p53 ([14]; high-dose group (400 μg/kg)): significantly increase
- protein expression quantity of p53 ([14]; low-dose group (100 μg/kg)): no significant change
- protein expression quantity of p53 ([14]; middle-dose group (200 μg/kg)): no significant change

Compound: triptolide triol [TP-3-OH, reference compound]
- inhibiting effect on proliferation [1]: no obvious inhibiting effect
- proportion of Annexin V and PI positive cells (induction of apoptosis) [2]: not obvious
- inhibiting effect on proliferation [3]: no obvious inhibiting effect
- LDH activity of the culture supernatant of LO2 cells [4]: significantly lower than that of the TPL treatment group
- inhibiting effect on proliferation [6]: no obvious inhibiting effect
- proportion of Annexin V and PI positive cells (induction of apoptosis) [8]: not obvious
- inhibiting effect on proliferation [10]: no obvious inhibiting effect
